The target of this experiment is T1, CBG (corticosteroid-binding globulin, transcortin) (Sus scrofa, UniProt Q9GK37).
T1 construct: quantity of cortisol specifically fixed to the glycoproteins adsorbed on the gel; from tissue; host or cells: pig blood plasma (Large White and Meishan, n = 12 each)
T1 sequence (Q9GK37 23-406): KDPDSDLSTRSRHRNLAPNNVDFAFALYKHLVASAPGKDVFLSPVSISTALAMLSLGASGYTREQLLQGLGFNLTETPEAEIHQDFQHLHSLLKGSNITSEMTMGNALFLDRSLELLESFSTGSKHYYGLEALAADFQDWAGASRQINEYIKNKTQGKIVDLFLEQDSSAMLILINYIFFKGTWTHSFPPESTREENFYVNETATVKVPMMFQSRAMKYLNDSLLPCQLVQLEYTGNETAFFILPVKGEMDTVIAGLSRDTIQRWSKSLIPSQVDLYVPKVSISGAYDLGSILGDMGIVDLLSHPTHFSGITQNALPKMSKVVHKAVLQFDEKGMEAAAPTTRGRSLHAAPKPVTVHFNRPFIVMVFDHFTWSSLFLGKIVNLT
The experiment in a line: solid phase fixation (radiobinding) test of cortisol binding to plasma CBG, Concavalin A-Sepharose, Scatchard analysis. The note with it: n = 12, plasma CBG, 4° C., read-out: Kd (affinity of CBG for cortisol). Also noted: species or system pig. The method, then: The binding capacity of CBG and its affinity for cortisol were measured at 4° C. by a solid phase fixation test using a Concavalin A-Sepharose column (Pugeat et al., 1984). The association equilibrium constant (Ka) and the capacity of CBG for cortisol were calculated by a Scatchard analysis using “bound” as the quantity of cortisol specifically fixed to the glycoproteins adsorbed on the gel and “free” as the concentration of cortisol in the aqueous phase.
At the protein level, the capacity of binding to cortisol and the affinity constant of CBG were compared between the LW and Meishan pigs by radiobinding studies. No difference in affinity was found between the two breeds of pigs.

SMILES strings stand for the structures. Read-outs that look alike come from different tables or passages of the source.

For the molecule `C[C@]12CCC(=O)C=C1CC[C@@H]1[C@@H]2[C@@H](O)C[C@@]2(C)[C@H]1CC[C@]2(O)C(=O)CO` [cortisol], the Kd (commonly a measure of binding affinity in units of concentration) reads like this: (Large White pigs) 0.38 ± 0.05 nM; (Meishan pigs) 0.46 ± 0.05 nM.
